The values below come from US11446279B2 (priority 2017, dated 2022).

Converted amounts (≈) assume the structure as drawn. Like-named read-outs stand apart in the source and are kept apart here.

For one experiment, the system named is A. baumannii (Sensitive). Kind of experiment: MIC against A. baumannii (Sensitive). The class given is cell-based, Acinetobacter baumannii.
A further experiment has as its system P. aeruginosa SFGH 266. Kind of experiment: MIC against P. aeruginosa SFGH 266. The class given is cell-based, Pseudomonas aeruginosa.
Another experiment concerns E. coli (AMP). Kind of experiment: MIC against E. coli (AMP). The class given is cell-based, Escherichia coli.
A further experiment has as its system MRSA. Kind of experiment: MIC against MRSA. The class given is cell-based, Methicillin-resistant Staphylococcus aureus.
Experiment [1] deals with drug-resistant GNBs such as Pseudomonas aeruginosa, Escherichia coli, and Acinetobacter baumannii. Kind of experiment: Growth inhibition of drug-resistant GNBs. The class given is cell-based. To be noted: in words; E. coli species, A. baumannii, P. aeruginosa / gram-negative bacteria.
The subject of the next experiment is E. coli ATCC25922. Kind of experiment: MIC against E. coli ATCC25922. The class given is cell-based, Escherichia coli.
The test system of a further experiment is P. aeruginosa SFGH 427. Kind of experiment: MIC against P. aeruginosa SFGH 427. The class given is cell-based, Pseudomonas aeruginosa.
For another experiment, the system named is A. baumannii (Resistant). Kind of experiment: MIC against A. baumannii (Resistant). The class given is cell-based, Acinetobacter baumannii.
The next experiment relates to E. coli SFGH 207. Kind of experiment: MIC against E. coli SFGH 207. The class given is cell-based, Escherichia coli.
The next experiment has as its system E. coli (KAN). Kind of experiment: microbe, parasite or virus in culture. The class given is cell-based, Escherichia coli.
The mark [2] stands for this setting: range stated jointly for MRSA and E. coli (ATCC 25922).

As to `O=[N+]([O-])c1sccc1S(=O)(=O)F` [compound 1, 2-nitrothiophene-3-sulfonyl fluoride], the MICs with A. baumannii (Sensitive) came to 21 µg/mL; against P. aeruginosa SFGH 266, 42 µg/mL; in the experiment with E. coli (AMP) it was 10.6 µg/mL; with MRSA (MRSA) it was 5.28 µg/mL; in the experiment on E. coli ATCC25922 (E. coli ATCC25922), 1.32 µg/mL; with P. aeruginosa SFGH 427, 84 µg/mL. The MICs in the experiment with A. baumannii (Resistant) turned out to be 42 µg/mL; in the experiment on E. coli SFGH 207, 42 µg/mL; against E. coli (KAN) (E. coli (KAN)), 0.66 µg/mL. Further, the MIC against MRSA (setting [2]) and with E. coli ATCC25922 (setting [2]) was 1 to 5 µg/mL in each case. Besides, the antibacterial activity result in [1] is “active”.
Regarding `O=C1CN(/N=C/c2ccc([N+](=O)[O-])o2)C(=O)N1` [nitrofurantoin 7, nitrofurantoin, reference compound], the MIC in the experiment on A. baumannii (Sensitive) (Acinetobacter baumannii) is over 95 µg/mL; in the experiment on P. aeruginosa SFGH 266 (Pseudomonas aeruginosa, SFGH266), over 95 µg/mL; against E. coli (AMP) (Escherichia coli) it was 6 µg/mL (≈ 25.2 µM); in the experiment with MRSA (Staphylococcus aureus, ATCC 25922 / MRSA, range stated jointly for MRSA and E. coli (ATCC 25922), read-out: MIC), 5 to 12 µg/mL (≈ 21 to 50.4 µM); with MRSA (Staphylococcus aureus, MRSA, read-out: MICs) it was 12 µg/mL (≈ 50.4 µM); in the experiment with E. coli ATCC25922 (Escherichia coli, ATCC25922, range stated jointly for MRSA and E. coli (ATCC 25922), read-out: MIC), 5 to 12 µg/mL (≈ 21 to 50.4 µM). Further, the MIC was 3 µg/mL (≈ 12.6 µM) with E. coli ATCC25922 (Escherichia coli, E. coli ATCC25922, read-out: MICs); over 95 µg/mL in the experiment with P. aeruginosa SFGH 427 (Pseudomonas aeruginosa, SFGH427); over 95 µg/mL against A. baumannii (Resistant) (Acinetobacter baumannii); 6 µg/mL (≈ 25.2 µM) against E. coli SFGH 207 (Escherichia coli, SFGH207); 0.37 µg/mL (≈ 1.55 µM) in the experiment on E. coli (KAN) (Escherichia coli, read-out: MICs).
